The source of these data is patent EP1189615B1, “ENDOPARASITICIDAL SYNERGISTIC COMBINATION CONTAINING CYCLIC DEPSIPEPTIDES AND PIPERAZINES” (Bayer HealthCare AG, priority 1999, dated 2000).

Test [1] has as its system Heterakis spumosa. The conditions noted are these: Maus. The source says: (§1) Die Durchführung der biologischen Tests erfolgte entsprechend den bekannten Verfahren (Plant et. al. Pesticide Science, 1996, 48, S. 351 ff.).
The subject of test [2] is Nematospiroides dibius. The conditions noted are these: Maus.
Source text: as §1

Test [3] has as its system Trichinella spiralis. To be noted: in-vitro.
Source text: as §1

Where two headings read alike, the source gives them in different places.

With `C1CNCCN1` [Piperazin], the Wirkung in test [1] (Dosis 4 x 100 mg/kg) is listed as 0 (Wurmreduktion <50 %); in test [1] (Dosis 4 x 250 mg/kg), 1 (Wurmreduktion 50-75 %); in test [2] (Dosis 2 x 2000 mg/kg), 2 (Wurmreduktion 75-90 %); in test [2] (Dosis 4 x 1000 mg/kg), 1 (Wurmreduktion 50-75 %); in test [3] (Konzentration 500 µg/ml), 0; in test [3] (Konzentration 1000 µg/ml), 0-1.
